According to publication PMC2806534 (Planta, 2009):

Target: T1, AtSUT4 (Arabidopsis thaliana, UniProt Q9FE59)
T1 sequence (Q9FE59 1-510): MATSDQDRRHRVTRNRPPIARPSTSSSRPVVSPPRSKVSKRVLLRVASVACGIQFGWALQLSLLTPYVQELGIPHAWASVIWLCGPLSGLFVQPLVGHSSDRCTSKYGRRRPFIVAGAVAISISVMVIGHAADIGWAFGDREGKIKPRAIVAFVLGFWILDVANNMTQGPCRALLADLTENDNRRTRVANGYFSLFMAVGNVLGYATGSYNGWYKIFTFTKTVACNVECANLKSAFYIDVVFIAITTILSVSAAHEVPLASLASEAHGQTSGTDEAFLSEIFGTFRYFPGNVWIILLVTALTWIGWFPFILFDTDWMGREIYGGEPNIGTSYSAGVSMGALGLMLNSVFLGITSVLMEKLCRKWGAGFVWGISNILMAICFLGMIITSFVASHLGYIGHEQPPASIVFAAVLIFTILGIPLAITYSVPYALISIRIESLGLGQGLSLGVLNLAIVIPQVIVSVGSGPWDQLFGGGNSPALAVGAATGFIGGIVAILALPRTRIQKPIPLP
Assay: inhibition of ^[…]-sucrose uptake in yeast expressing AtSUT4
Format: cell-based
Conditions: 3 mM ^14C-sucrose; competing non-labeled sugar at 9 mM

| SMILES | % inhibition at 9 mM |
| --- | --- |
| OC[C@H]1O[C@@H](O[C@H]2[C@H](O)[C@@H](O)C(O)O[C@@H]2CO)[C@H](O)[C@@H](O)[C@H]1O (some centres unmarked) [lactose] | uptake of sucrose by AtSUT4 was inhibited by rutinose, maltose and lactose |
| OC[C@H]1O[C@H](O[C@H]2[C@H](O)[C@@H](O)C(O)O[C@@H]2CO)[C@H](O)[C@@H](O)[C@@H]1O (some centres unmarked) [maltose] | uptake of sucrose by AtSUT4 was inhibited by rutinose, maltose and lactose |
